In paper PMC10375784, “Synthesis of phthalazine-based derivatives as selective anti-breast cancer agents through EGFR-mediated apoptosis: in vitro and in silico studies” (BMC Chemistry, 2023):
Read-outs that look alike come from different tables or passages of the source.

Tests used:
VEGFR‐2 = conditions: cited from earlier work
[1] = system: breast MCF-7 and MDA-MB-231 cancer cell lines; experiment: SAR ranking of cytotoxicity (from Table 1); type: cell-based; conditions: Fig. 4, SAR summary
MCF-7 cells = experiment: MTT cytotoxicity assay, MCF-7; type: cell-based; conditions: Homo sapiens, MCF7, 48 h, three independent trials, read-out: IC50 (μM) ± SD MCF-7
Description: (§1) MCF-7, HepG2 cancer cells and WISH normal cells were obtained from the National Cancer Institute in Cairo, Egypt, they were cultured in complete media of RPMI and DMEM, respectively at 5% carbon dioxide and 37 °C following standard tissue culture work. The cells were grown in “10% fetal bovine serum (FBS) and 1% penicillin–streptomycin” in 96-multiwell plate. All the synthesized compounds were screened for their cytotoxicity using 20 µL of MTT solution (Promega, USA) for 48 hours using untreated and treated cells with concentrations of (0.01, 0.1, 1, 10, and 100 µM) for 48 h. The plate was cultured for 3 h. Percentage of cell viability was calculated following this equation: 100-(ASample/AControl)X100 . An ELISA microplate reader was used to measure the absorbance at 690 nm to calculate the viability versus concentration, and the IC50 value using GraphPad prism software.

MDA-MB-231 cells [2] = experiment: MTT cytotoxicity assay, MDA-MB-231; type: cell-based
[3] = system: breast MCF-7 and MDA-MB-231 cancer cell lines; experiment: SAR ranking of cytotoxicity (from Table 1); conditions: based on Table 1; cell line not stated, order follows MCF-7 values
Description: as §1

EGFR = molecular target: T1, EGFR (Homo sapiens, UniProt P00533); experiment: EGFR enzyme inhibition (BPS Bioscience kit, ELISA); type: biochemical; conditions: three independent replicates; for IC50: five concentrations, read-out: EGFR IC50 [nM] ± SD
T1 construct: purchased BPS Bioscience Corporation 40321
Description: The luminescence was measured with a microplate reader at 450 nm by ELISA Reader (PerkinElmer). Inhibition percentage was calculated following this equation: 100-[Acontrol/Atreated-Control)] , IC50 was determined using GraphPad prism7 using inhibition curves at five different concentrations of each compound.

MCF-10A cells = experiment: MTT cytotoxicity assay, normal breast cells MCF-10A; type: cell-based; conditions: Homo sapiens, MCF-10A; MTT, 48 h, normal breast cells; read-out: IC50 (μM) ± SD MCF-10A
[4] = as above; type: cell-based; conditions: human; MCF-10A normal breast cells, highest concentration; read-out: percentage of cell viability at the highest concentration
MDA-MB-231 cells [5] = experiment: Flow cytometry Annexin V/PI apoptosis/necrosis assessment; type: cell-based; conditions: MDA-MB-231, treated at IC50 0.57 μM, 48 h
Description: MDA-MB-231 cells were incubated overnight in 6-well culture plates (3–5 × 10^5 cells/well) and then treated with the IC50 values for 48 h with compound 12d. After that, the cells were incubated in a 100 µL solution of Annexin binding buffer "25 mM CaCl2, 1.4 M NaCl, and 0.1 M Hepes/NaOH, pH 7.4" in the dark for 30 min with "Annexin V-FITC solution (1:100) and propidium iodide (PI) at a concentration equivalent to 10 µg/mL." The labeled cells were then extracted using the Cytoflex FACS machine. CytExpert software was used to analyze the data.

[6] = Homo sapiens, MDA-MB-231, MTT, 48 h, three independent trials, read-out: IC50 (μM) ± SD MDA-MB-231
[7] = Fig. 3, MTT, 100 µM to 0.01 µM, 48 h, cell line not given, they match MDA-MB-231
[8] = Homo sapiens, Fig. 3, MTT, 100 µM to 0.01 µM, 48 h, cell line not given, they match MDA-MB-231, read-out: IC50 (Fig. 3 curve fit)

T1 sequence (P00533 25-1210): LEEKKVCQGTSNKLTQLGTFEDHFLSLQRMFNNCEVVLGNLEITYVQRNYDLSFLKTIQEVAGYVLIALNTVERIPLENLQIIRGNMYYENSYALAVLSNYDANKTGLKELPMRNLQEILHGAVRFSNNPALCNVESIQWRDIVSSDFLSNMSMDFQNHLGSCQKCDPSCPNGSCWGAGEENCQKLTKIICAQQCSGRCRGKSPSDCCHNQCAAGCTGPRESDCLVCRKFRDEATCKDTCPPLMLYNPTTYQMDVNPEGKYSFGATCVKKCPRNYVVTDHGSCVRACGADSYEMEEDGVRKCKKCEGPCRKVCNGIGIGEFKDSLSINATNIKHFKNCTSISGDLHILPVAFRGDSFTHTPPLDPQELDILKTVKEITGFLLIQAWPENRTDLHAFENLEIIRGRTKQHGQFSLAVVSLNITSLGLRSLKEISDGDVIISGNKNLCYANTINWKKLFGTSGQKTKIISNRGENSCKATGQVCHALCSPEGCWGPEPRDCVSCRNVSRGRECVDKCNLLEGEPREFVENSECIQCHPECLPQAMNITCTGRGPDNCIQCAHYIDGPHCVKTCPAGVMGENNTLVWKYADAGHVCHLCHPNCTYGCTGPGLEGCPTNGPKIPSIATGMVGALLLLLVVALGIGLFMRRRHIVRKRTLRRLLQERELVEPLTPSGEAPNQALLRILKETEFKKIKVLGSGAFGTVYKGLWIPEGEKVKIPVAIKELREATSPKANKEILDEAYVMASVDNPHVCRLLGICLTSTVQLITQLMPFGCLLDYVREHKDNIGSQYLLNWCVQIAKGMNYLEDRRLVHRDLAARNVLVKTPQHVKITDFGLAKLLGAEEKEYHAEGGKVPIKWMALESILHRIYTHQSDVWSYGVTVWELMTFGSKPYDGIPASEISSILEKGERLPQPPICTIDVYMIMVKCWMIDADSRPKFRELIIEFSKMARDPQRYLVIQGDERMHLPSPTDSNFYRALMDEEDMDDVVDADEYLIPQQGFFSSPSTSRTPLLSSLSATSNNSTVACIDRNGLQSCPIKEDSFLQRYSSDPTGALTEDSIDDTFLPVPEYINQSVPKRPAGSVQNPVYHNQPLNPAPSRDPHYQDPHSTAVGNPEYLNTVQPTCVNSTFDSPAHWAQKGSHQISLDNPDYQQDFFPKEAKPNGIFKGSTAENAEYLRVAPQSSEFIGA

Row | Compound | level of cytotoxic activity (Fig. 4) [1] | IC50 (MCF-7 cells) [µM] | melting point [°C] | IC50 (MDA-MB-231 cells [2]; [6]) [µM] | order of cytotoxic activity (SAR) [3] | other results
1 | Cc1ccc(Nc2nnc(Cc3ccncc3)c3ccccc23)cc1Br [AAC789] | – | – | – | – | – | IC50 (VEGFR‐2): 0.02 µM
2 | O=C(Cn1nc(Cc2ccccc2)c2ccccc2c1=O)NCc1ccccc1 [Compound 6a, 2-(4-benzyl-1-oxophthalazin-2(1H)-yl)-N-benzyl acetamide] | Third level activity (Poor cytotoxicity) | 18.6 ± 0.69 | 174 to 176 | 19.8 ± 0.74 | – | –
3 | C=CCNC(=O)Cn1nc(Cc2ccccc2)c2ccccc2c1=O [Compound 6f, 2-(4-benzyl-1-oxophthalazin-2(1H)-yl)-N-allyl acetamide] | Third level activity (Poor cytotoxicity) | 23.1 ± 0.94 | 164 to 166 | ≥ 50 | – | –
4 | O=C(Cn1nc(Cc2ccccc2)c2ccccc2c1=O)N1CCCCC1 [Compound 6g, 4-benzyl-2-(2-oxo-2-(piperidin-1-yl)ethyl) phthalazin-1(2H)-one] | – | – | 192 to 194 | – | – | –
5 | O=C(Cn1nc(Cc2ccccc2)c2ccccc2c1=O)N1CCOCC1 [Compound 6h, 4-benzyl-2-(2-morpholino-2-oxoethyl) phthalazin-1(2H)-one] | Third level activity (Poor cytotoxicity) | 17.3 ± 0.31 | 210 to 212 | 21.3 ± 0.64 | – | –
6 | COC(=O)CNC(=O)Cn1nc(Cc2ccccc2)c2ccccc2c1=O [Compound 7a, methyl (2-(4-benzyl-1-oxophthalazin-2(1H)-yl)acetyl) glycinate] | – | ≥ 50 | – | 26.5 ± 0.79 | – | –
7 | NNC(=O)CNC(=O)Cn1nc(Cc2ccccc2)c2ccccc2c1=O [Compound 8a, 2-(4-benzyl-1-oxophthalazin-2(1H)-yl)-N-(2-hydrazineyl-2-oxoethyl) acetamide] | – | 31.2 ± 1.01 | 202 to 204 | 1.34 ± 0.13 | – | –
8 | O=C(CNC(=O)Cn1nc(Cc2ccccc2)c2ccccc2c1=O)NCc1ccccc1 [Compound 10a, N-benzyl-2-(2-(4-benzyl-1-oxophthalazin-2(1H)-yl)acetamido) acetamide] | – | ≥ 50 | 186 to 188 | 6.4 ± 0.18 | – | –
9 | C=CCNC(=O)CNC(=O)Cn1nc(Cc2ccccc2)c2ccccc2c1=O [Compound 10f, N-allyl-2-(2-(4-benzyl-1-oxophthalazin-2(1H)-yl)acetamido) acetamide] | Second level activity (Moderate cytotoxicity) | 15.4 ± 0.28 | 188 to 190 | 8.6 ± 0.1 | moderate cytotoxicity (IC50 ≤ 20 μM) | –
10 | O=C(Cn1nc(Cc2ccccc2)c2ccccc2c1=O)NCC(=O)N1CCOCC1 [Compound 10h, 2-(4-benzyl-1-oxophthalazin-2(1H)-yl)-N-(2-morpholino-2-oxoethyl) acetamide] | Second level activity (Moderate cytotoxicity) | 16.4 ± 0.31 | 148 to 150 | 2.3 ± 0.1 | moderate cytotoxicity (IC50 ≤ 20 μM) | –
11 | COC(=O)CNC(=O)CNC(=O)Cn1nc(Cc2ccccc2)c2ccccc2c1=O [Compound 11a, methyl (2-(4-benzyl-1-oxophthalazin-2(1H)-yl)acetyl) glycyl glycinate] | Second level activity (Moderate cytotoxicity) | 11.3 ± 0.29 | 162 to 164 | 7.2 ± 0.3 | moderate cytotoxicity (IC50 ≤ 20 μM) | –
12 | COC(=O)C(NC(=O)CNC(=O)Cn1nc(Cc2ccccc2)c2ccccc2c1=O)C(C)C (stereo not shown) [Compound 11d, methyl (2-(4-benzyl-1-oxophthalazin-2(1H)-yl)acetyl) glycyl valinate] | – | 2.1 ± 0.01 | 190 to 192 | 0.92 ± 0.01 | – | inhibition at 10 µM (EGFR): 92.9 ± 2.08%; IC50 (EGFR): 79.6 ± 1.35 nM; IC50 (MCF-10A cells): 39.4 ± 1.8 µM; viability at 48 h, 100 µM [4]: 11%; LogIC50 (Fig. 3 curve fit) (MDA-MB-231 cells [2]; [7]): -0.03564; IC50 (MDA-MB-231 cells [2]; [8]): 0.921 µM
13 | C/C(=N\NC(=O)CNC(=O)Cn1nc(Cc2ccccc2)c2ccccc2c1=O)c1ccco1 [Compound 12c, (E)-2-(4-benzyl-1-oxophthalazin-2(1H)-yl)-N-(2-(2-(1-(furan-2-yl)ethylidene) hydrazineyl)-2-oxoethyl) acetamide] | First level activity (Potent cytotoxicity) | 1.4 ± 0.05 | 209 to 210 | 1.89 ± 0.04 | potent cytotoxicicty (IC50 ≤ 2.5 μM) | inhibition at 10 µM (EGFR): 96.2 ± 2.04%; IC50 (EGFR): 65.4 ± 1.12 nM; IC50 (MCF-10A cells): 43.6 ± 1.9 µM; viability at 48 h, 100 µM [4]: 9.6%; LogIC50 (Fig. 3 curve fit) (MDA-MB-231 cells [2]; [7]): 0.2772; IC50 (MDA-MB-231 cells [2]; [8]): 1.89 µM
14 | Nc1cc(=O)[nH]n1C(=O)CNC(=O)Cn1nc(Cc2ccccc2)c2ccccc2c1=O [Compound 12d, N-(2-(5-amino-3-oxo-2,3-dihydro-1H-pyrazol-1-yl)-2-oxoethyl)-2-(4-benzyl-1-oxophthalazin-2(1H)-yl) acetamide] | First level activity (Potent cytotoxicity) | 1.9 ± 0.01 | – | 0.57 ± 0.09 | potent cytotoxicicty (IC50 ≤ 2.5 μM) | early apoptosis (Q4, AV+/PI−) (MDA-MB-231 cells [5]): 24.2%; late apoptosis (Q2, AV+/PI+) (MDA-MB-231 cells [5]): 18.3%; necrosis fold vs control (MDA-MB-231 cells [5]): 9.25 fold; total apoptosis fold vs control (MDA-MB-231 cells [5]): 64.4 fold; total apoptotic cell death (MDA-MB-231 cells [5]; control 0.66%): 42.5%; necrosis (Q1, AV−/PI+) (MDA-MB-231 cells [5]; control 0.67%): 6.2%; inhibition at 10 µM (EGFR): 97.6 ± 2.49%; IC50 (EGFR): 21.4 ± 0.67 nM; IC50 (MCF-10A cells): 41.6 ± 1.8 µM; viability at 48 h, 100 µM [4]: 3%; LogIC50 (Fig. 3 curve fit) (MDA-MB-231 cells [2]; [7]): -0.2373; IC50 (MDA-MB-231 cells [2]; [8]): 0.579 µM; cell growth inhibition at the highest concentration (MDA-MB-231 cells [2]; MDA-MB-231, highest concentration (range 100 µM to 0.01 µM), 48 h): 98.2%
15 | C#Cc1cccc(Nc2ncnc3cc(OCCOC)c(OCCOC)cc23)c1 [Erlotinib, reference compound] | – | 1.32 ± 0.04 | – | – | – | IC50 (MCF-10A cells): 30.9 ± 1.8 µM; IC50 (MDA-MB-231 cells [2]; Homo sapiens, MDA-MB-231, 48 h, MTT, three independent trials, read-out: IC50 (μM) ± SD MDA-MB-231): 1 µM; IC50 (MDA-MB-231 cells [2]; MTT, 48 h, three independent trials, read-out: IC50 (μM) ± SD MDA-MB-231): 1.02 ± 0.1 µM
